Test results from patent US6583175B2, “Alkylxanthates and use of alkylxanthates in the integrated pest management” (Council of Scientific & Industrial Research, priority 2001, dated 2003).
≈ marks a conversion by molar mass, not a printed value.

What was measured:
Spodoptera litura = experiment: Antifeedant activity against late third instar of Spodoptera litura (leaf disk, oral feeding); format: in vivo; details: in vivo
[1] = tested on: Brine shrimp, Artemia salina; details: in vivo
lice = details: in vivo; cited from earlier work

C/C=C(\C)C(=O)O[C@H]1C[C@@H](OC(C)=O)[C@@]2(C(=O)OC)CO[C@H]3[C@@H](O)[C@@](C)([C@]45O[C@@]4(C)[C@H]4C[C@@H]5O[C@@H]5OC=C[C@@]54O)[C@H]4[C@]1(CO[C@]4(O)C(=O)OC)[C@@H]32 [Azadiractin, reference compound]
Concentration required for 50% leaf protection EC50 ± S.E. (Spodoptera litura): 6.34 ± 1.77 μg/cm^2

CC[C@@]1(O)C(=O)OCc2c1cc1n(c2=O)Cc2cc3ccccc3nc2-1 [Chamtothecin, reference compound]
LC50 ± S.E. [1]: 2.53 ± 0.43 µg/mL (≈ 7.26 µM)

S=C(OCc1ccccc1)SCCSC(=S)OCc1ccccc1 [Compound 5, Ethylene Bis(benzylxanthate)]
insecticidal activity against lice (lice): moderate insecticidal activity
